What was measured:
Bovine type 1 trypsin = target: T1, Bovine type 1 trypsin (Bos taurus, UniProt P00760); experiment: Trypsin-catalyzed hydrolysis of chromogenic substrate Spectrozyme TRY (in vitro enzyme assay); type: biochemical; conditions: 3.2 U/ml trypsin, 0.1-0.3 mM Spectrozyme TRY; for IC50: read-out: Trp IC50; for Ki: read-out: Trp Ki (listed in place of the IC50)
T1 construct: purchased Sigma
T1 sequence (P00760 24-246): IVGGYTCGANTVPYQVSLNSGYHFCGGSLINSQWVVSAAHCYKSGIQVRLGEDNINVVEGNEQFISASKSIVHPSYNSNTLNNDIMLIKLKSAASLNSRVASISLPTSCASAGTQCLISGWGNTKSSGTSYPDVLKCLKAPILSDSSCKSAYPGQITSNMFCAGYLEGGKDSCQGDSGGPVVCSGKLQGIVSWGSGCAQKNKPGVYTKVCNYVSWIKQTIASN
Method: The compounds of the invention were tested for their ability to inhibit thrombin mediated hydrolysis. An in vitro enzyme assay was performed as well as an ex vivo assay. In addition, the compounds were tested in vitro for their ability to inhibit trypsin, as an indication of their selectivity.
Trypsin-catalyzed hydrolysis rates were measured using the same method as the thrombin procedure.
The compound numbers in the table correspond to the examples described hereinafter.

[1] = rat, in vivo, iv
Method: An ex vivo assay was conducted to determine the duration of action of the compounds of Formula I. For this i.v. assay male rats (Long Evans, 350-500 g) were implanted with a teflon cannulae via the femoral artery while under anesthesia (pentobarbital i.p., 35 mg/kg). […] The animals were allowed to recover for at least 24 h after the surgical procedure.
The test compound was dispersed in water and delivered to the animal (0.25 mL) via the femoral vein. […] A plasma sample was obtained by centrifuging the blood at 10,000 rpm for 5 min. This sample is analyzed for thrombin inhibition using the chromogenic assay, described below.
Datum was collected over a 30 min period and the initial rate of substrate hydrolysis (V0 (mOD/min)) was calculated with an analysis program (Softmax, Molecular Devices).
The time to half plasma elimination (t 1/2) was calculated from the slope of Vo vs. time, using the following equation: t 1/2=-1.6 slope.

human alpha-thrombin = target: T2, human alpha-thrombin (Homo sapiens, UniProt P00734); experiment: Thrombin-catalyzed hydrolysis of chromogenic substrate Spectozyme TH (in vitro enzyme assay); type: biochemical; conditions: 1 nM thrombin, 37° C., pH 7.4; for IC50: 50 μM Spectozyme TH, read-out: Thr IC50; for Ki: 5-100 μM Spectozyme TH, read-out: Thr Ki (listed in place of the IC50)
T2 construct: commercial human alpha-thrombin (American Diagnostica); purchased American Diagnostica
Method: Thrombin-catalyzed hydrolysis rates were measured spectrophotometrically using commercial human alpha-thrombin (American Diagnostica), a chromogenic substrate (Spectozyme® TH (H-D-HHT-Ala-Arg-pNA.2AcOH), American Diagnostica) in aqueous buffer (10 mM Tris, 10 mM Hepes, 150 mM NaCl, 0.1% PEG; pH 7.4), and a microplate reader (Molecular Devices). Changes in absorbance at 405 nm were monitored (Softmax, Molecular Devices), upon addition of enzyme, both with and without inhibitor present at 37° C. over 30 minutes. […] Michaelis-Menton kinetics were applied to the initial reaction slopes. […] Michaelis-Menton kinetics were applied to the initial reaction slopes using the program K.Cat (Bio Metallics Inc.).

SMILES | IC50 (Bovine type 1 trypsin) [nM] | IC50 (human alpha-thrombin) [nM] | other results
CC1CNc2c(cccc2S(=O)(=O)N[C@@H](CCCNC(=N)N)C(=O)N2CC[C@@H](C)C[C@@H]2C(=O)O)C1 (stereo partly drawn) [Argatroban, reference compound] | – | – | Ki (Bovine type 1 trypsin): 2900 nM
N=C(N)NCCC[C@H](NC(=O)[C@@H]1CCCN1)C(=O)c1nc2ccccc2s1 [Compound 48] | 684 | – | –
CN[C@H](Cc1ccccc1)C(=O)N1CCC[C@H]1C(=O)N[C@H](C=O)CCCNC(=N)N [reference compound] | – | – | Ki (Bovine type 1 trypsin): 3.9 nM
N=C(N)NCCC[C@H](NC(=O)C1CCCC1)C(=O)c1nc2ccccc2s1 [Compound 31] | 80 | – | –
CN(C)c1cccc2c(S(=O)(=O)N[C@@H](CCCNC(=N)N)C(=O)N3CCCCC3CCC(=O)c3nccs3)cccc12 (single isomer, unassigned) [Compound 26] | – | – | Ki (human alpha-thrombin): 38000 nM; Ki (Bovine type 1 trypsin): 180000 nM
CN[C@H](Cc1ccccc1)C(=O)N1CCC[C@H]1C(=O)N[C@@H](Cc1ccc(C(=N)N)cc1)C(=O)c1nc2ccccc2s1 [Compound 57] | 182 | 19600 | –
CN[C@H](Cc1ccccc1)C(=O)N1CCC[C@H]1C(=O)N[C@H](CCCNC(=N)N)C(=O)c1nc2ccccc2s1 [Compound 2, N-METHYL-D-PHENYLALANYL-N-[4-[(AMINOIMINOMETHYL)AMINO]-1R-[(BENXOTHIAZOL-2- YL)CARBONYL]BUTYL]-L-PROLINAMIDE] | – | – | Ki (human alpha-thrombin): 0.9 nM
CN[C@H](Cc1ccccc1)C(=O)N1CCC[C@H]1C(=O)N[C@@H](CCCNC(=N)N)C(=O)c1nc2ccc(OC)cc2s1 [Compound 50, N-METHYL-D-PHENYLALANYL-N-[4-[(AMINOIMINOMETHYL)AMINO]-1S-[(6-METHOXYBENXOT HIAZOL-2-YL)CARBONYL]BUTYL]-L-PROLINAMIDE] | – | – | Ki (Bovine type 1 trypsin): 2 nM
CN[C@H](Cc1ccccc1)C(=O)N1CCC[C@H]1C(=O)N[C@@H](Cc1ccccc1)C(=O)c1nc2ccccc2s1 [Compound 38] | 38700 | 29900 | –
CN[C@H](Cc1ccccc1)C(=O)N1CCC[C@H]1C(=O)N[C@@H](CCCNC(=N)N)C(=O)c1nc2ccc(F)cc2s1 [Compound 18, N-METHYL-D-PHENYLALANYL-N-[4-[(AMINOIMINOMETHYL)AMINO]-1S-[(6-FLUOROBENXOTH IAZOL-2-YL)CARBONYL]BUTYL]-L-PROLINAMIDE] | 130 | – | –
CCOC(=O)c1csc(C(=O)[C@H](CCCNC(=N)N)NC(=O)[C@@H]2CCCN2C(=O)[C@@H](Cc2ccccc2)NC)n1 [Compound 20, N-METHYL-D-PHENYLALANYL-N-[4-[(AMINOIMINOMETHYL)AMINO]-1S-[(4-ETHOXYCARBONY LTHIAZOL-2-YL)CARBONYL]BUTYL]-L-PROLINAMIDE] | 58 | 450 | –
CN[C@H](Cc1ccccc1)C(=O)N1CCC[C@H]1C(=O)N[C@@H](CCCNC(=N)N)C(=O)c1nc(C(=O)NCCc2ccccc2)cs1 [Compound 55] | 8.6 | 830 | –
CN[C@H](Cc1ccccc1)C(=O)N1CCC[C@H]1C(=O)N[C@H](CCCNC(=N)N)C(=O)c1nc2ccc(CO)cc2s1 [Compound 16, N-METHYL-D-PHENYLALANYL-N-[4-[(AMINOIMINOMETHYL)AMINO]-1R-[(6-HYDROXYMETHYL BENXOTHIAZOL-2-YL)CARBONYL]BUTYL]-L-PROLINAMIDE] | 238 | – | –
CN[C@H](Cc1ccccc1)C(=O)N1CCC[C@H]1C(=O)N[C@@H](CCCNC(=N)N)C(=O)c1nc2ccccc2c(=O)[nH]1 [Compound 24] | 14 | 106 | –
CNC1(C(=O)N2CCC[C@H]2C(=O)N[C@@H](CCCNC(=N)N)C(=O)c2nc3ccccc3s2)CCCCC1 [Compound 45, 1-(N-METHYLAMINO)-1-CYCLOHEXYLCARBONYL-N-[4-[(AMINOIMINOMETHYL)AMINO]-1S-[( BENZOTHIAZOL-2-YL)CARBONYL]BUTYL]-L-PROLINAMIDE] | 9 | 371 | –
CN(C)c1cccc2c(S(=O)(=O)N[C@@H](CCCNC(=N)N)C(=O)N3CCCCC3CCC(=O)c3nccs3)cccc12 (single isomer, unassigned) [Compound 27] | – | – | Ki (human alpha-thrombin): 1200 nM; Ki (Bovine type 1 trypsin): 12000 nM
CN[C@H](Cc1ccccc1)C(=O)N1CCC[C@H]1C(=O)N[C@@H](CCCCNC(=N)N)C(=O)c1nc2ccccc2s1 [Compound 11, N-METHYL-D-PHENYLALANYL-N-[5-[(AMINOIMINOMETHYL)AMINO]-1S-[(BENXOTHIAZOL-2- YL)CARBONYL]PENTYL]-L-PROLINAMIDE] | – | – | Ki (human alpha-thrombin): 420 nM; Ki (Bovine type 1 trypsin): 6010 nM
CN[C@H](Cc1ccccc1)C(=O)N1CCC[C@H]1C(=O)N[C@@H](CCCNC(=N)N)C(=O)c1nccn1C [Compound 22] | 18400 | 1520 | –
CN[C@H](Cc1ccccc1)C(=O)N1CCC[C@H]1C(=O)N[C@H](CCCNC(=N)N)C(=O)c1nc(C(=O)NCCc2ccccc2)cs1 [Compound 56] | 27.9 | 21000 | –
CN[C@H](Cc1ccccc1)C(=O)N1CCC[C@H]1C(=O)N[C@@H](CCCNC(=N)N)C(=O)c1ccccn1 [Compound 23] | 238 | 928 | –
CN[C@H](Cc1ccccc1)C(=O)N1CCC[C@H]1C(=O)N(C)[C@@H](CCCNC(=N)N)C(=O)c1nc2ccccc2s1 [Compound 40] | 7010 | 20500 | –

More lines, in order of falling IC50 (Bovine type 1 trypsin), values ahead:

IC50 (Bovine type 1 trypsin) [nM] | IC50 (human alpha-thrombin) [nM] | SMILES | other results
5 | – | CN[C@H](Cc1ccccc1)C(=O)N1CCC[C@H]1C(=O)N[C@@H](CCCNC(=N)N)C(=O)c1nc2ccc3ccccc3c2s1 [Compound 52, N-METHYL-D-PHENYLALANYL-N-[4-[(AMINOIMINOMETHYL)AMINO]-1S-[(NAPTHO[2,1-D]TH IAZOL-2-YL)CARBONYL]BUTYL]-L-PROLINAMIDE] | t1/2 (time to half plasma elimination) [1]: 8 min
4 | – | CN[C@H](Cc1ccccc1)C(=O)N1CCC[C@H]1C(=O)N[C@@H](CCCNC(=N)N)C(=O)c1nc2ccc(F)cc2s1 [Compound 17, N-METHYL-D-PHENYLALANYL-N-[4-[(AMINOIMINOMETHYL)AMINO]-1S-[(6-FLUOROBENXOTH IAZOL-2-YL)CARBONYL]BUTYL]-L-PROLINAMIDE] | t1/2 (time to half plasma elimination) [1]: 8 min
4 | – | C[C@@](N)(Cc1ccccc1)C(=O)N1CCC[C@H]1C(=O)N[C@@H](CCCNC(=N)N)C(=O)c1nc2ccccc2s1 [Compound 47] | –
3 | – | CN[C@H](Cc1ccccc1)C(=O)N1CCC[C@H]1C(=O)N[C@@H](CCCNC(=N)N)C(=O)c1nc2ccc(C(N)=O)cc2s1 [Compound 14, N-METHYL-D-PHENYLALANYL-N-[4-[(AMINOIMINOMETHYL)AMINO]-1S-[(6-CARBOXAMIDOBE NXOTHIAZOL-2-YL)CARBONYL]BUTYL]-L-PROLINAMIDE] | –
3 | 15 | N=C(N)NCCC[C@H](NC(=O)[C@@H]1CCCN1C(=O)C(N)(c1ccccc1)c1ccccc1)C(=O)c1nc2ccccc2s1 [Compound 46] | –
3 | – | CN[C@H](Cc1ccccc1)C(=O)N1CCC[C@H]1C(=O)N[C@@H](CCCNC(=N)N)C(=O)c1nc2ccc(CO)cc2s1 [Compound 15, N-METHYL-D-PHENYLALANYL-N-[4-[(AMINOIMINOMETHYL)AMINO]-1S-[(6-HYDROXYMETHYL BENXOTHIAZOL-2-YL)CARBONYL]BUTYL]-L-PROLINAMIDE] | t1/2 (time to half plasma elimination) [1]: 16 min
3 | – | CN[C@H](Cc1ccccc1)C(=O)N1CCC[C@H]1C(=O)N[C@@H](CCCNC(=N)N)C(=O)c1nc2ccc(C(=O)OC)cc2s1 [Compound 12, N-METHYL-D-PHENYLALANYL-N-[4-[(AMINOIMINOMETHYL)AMINO]-2S-[(6-METHOXYCARBON YLBENXOTHIAZOL-2-YL)CARBONYL]BUTYL]-L-PROLINAMIDE] | t1/2 (time to half plasma elimination) [1]: 43 min
2 | – | CNC(C(=O)N1CCCC1C(=O)NC(CCCNC(=N)N)C(=O)c1nc2ccccc2s1)c1ccccc1 [Compound 33, N-METHYL-D-PHENYLGLYCYL-N-[4-[(AMINOIMINOMETHYL)AMINO]-1S-[(BENXOTHIAZOL-2- YL)CARBONYL]BUTYL]-L-PROLINAMIDE] | t1/2 (time to half plasma elimination) [1]: 18 min
2 | – | CN[C@H](Cc1ccccc1)C(=O)N1CCC[C@H]1C(=O)N[C@@H](CCCNC(=N)N)C(=O)c1nc2ccc(C(=O)O)cc2s1 [Compound 13, N-METHYL-D-PHENYLALANYL-N-[4-[(AMINOIMINOMETHYL)AMINO]-1S-[(6-CARBOXYBENXOT HIAZOL-2-YL)CARBONYL]BUTYL]-L-PROLINAMIDE] | t1/2 (time to half plasma elimination) [1]: 25 min
2 | – | CN[C@H](Cc1ccccc1)C(=O)N1CCCC[C@H]1C(=O)N[C@@H](CCCNC(=N)N)C(=O)c1nc2ccccc2s1 [Compound 42, N-METHYL-D-PHENYLALANYL-N-[4-[(AMINOIMINOMETHYL)AMINO]-1S-[(BENZOTHIAZOL-2- YL)CARBONYL]BUTYL]-2S-PIPERIDINECARBOXAMIDE] | –
1 | – | CN[C@@H](C(=O)N1CCC[C@H]1C(=O)N[C@@H](CCCNC(=N)N)C(=O)c1nc2ccccc2s1)C1CCCCC1 [Compound 37, N-METHYL-D-CYCLOHEXYLGLYCYL-N-[4-[(AMINOIMINOMETHYL)AMINO]-1S-[(BENXOTHIAZO L-2-YL)CARBONYL]BUTYL]-L-PROLINAMIDE] | t1/2 (time to half plasma elimination) [1]: 42 min
1 | – | N=C(N)NCCC[C@H](NC(=O)[C@@H]1CCCN1C(=O)[C@H](N)Cc1ccccc1)C(=O)c1nc2ccccc2s1 [Compound 41, D-PHENYLALANYL-N-[4-[(AMINOIMINOMETHYL)AMINO]-1S-[(BENZOTHIAZOL-2-YL)CARBON YL]BUTYL]-L-PROLINAMIDE] | –

From patent US5523308A, “Peptidyl heterocycles useful in the treatment of thrombin related disorders” (priority 1995, dated 1996)
